Legend:
[1] = molecular target: T1, TgGSK3 (Toxoplasma gondii, UniProt A0A125YY75); assay: X-ray co-crystal structure ([…] Å and […] Å); microscale thermophoresis; Kinase-Glo inhibition (IC50 […]); type: binding
T1 construct: gene TGGT1_265330; kinase domain, aa 46-385 (orthorhombic crystal) and aa 20/21-385 (monoclinic crystal)

[2] = molecular target: recombinant TgGSK3 (amino acids 21-385), C-terminal 6His (Toxoplasma gondii); assay: crystal structure; monoclinic crystal at 3.0 A of TgGSK3 (aa 20 to 385) with LY2090314; hanging drops in 5% MPD, 9% PEG 6000, 0.1 M Tris pH 7.5; crystals grew after several weeks; four subunits in the asymmetric unit

Row | Compound | Kd [1] | stoichiometry N [2]
1 | O=C1NC(=O)C(c2cnc3ccccn23)=C1c1cn2c3c(cc(F)cc13)CN(C(=O)N1CCCCC1)CC2 [compound 209, LY2090314] | 34 nM | –
2 | recombinant TgGSK3 (amino acids 21-385), C-terminal 6His (from UniProt A0A125YY75 21-385) (enzyme) | – | 2

— article PMC12589562, “Structural and functional characterization of TgGSK3, a druggable kinase in Toxoplasma gondii” (Nature Communications, 2025)
